In patent US20260373266A1, “PROTEIN DEGRADERS AND USES THEREOF” (KYMERA THERAPEUTICS, INC., priority 2022, published 2026) one finds Kd data, which are given here for 73 molecules.

The target in this assay is T1, DCAF1 WD40 domain (residues 1077-1390) (Homo sapiens, UniProt Q9Y4B6).
T1 construct: DCAF1 WD40 domain (residues 1077-1390)
T1 sequence (Q9Y4B6 1077-1390): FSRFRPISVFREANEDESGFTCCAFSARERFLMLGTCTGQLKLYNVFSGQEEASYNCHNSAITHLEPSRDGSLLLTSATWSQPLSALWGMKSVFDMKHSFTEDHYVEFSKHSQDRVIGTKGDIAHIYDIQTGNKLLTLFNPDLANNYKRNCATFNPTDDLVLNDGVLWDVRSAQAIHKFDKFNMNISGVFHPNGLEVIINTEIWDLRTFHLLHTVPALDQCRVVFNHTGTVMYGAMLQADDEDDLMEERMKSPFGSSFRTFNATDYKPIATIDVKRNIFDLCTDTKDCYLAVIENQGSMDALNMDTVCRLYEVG
Description: DCAF1 binding assay by SPR (Biacore 8K+), DCAF1-3 KD. The following applies: 25 °C, read-out: DCAF1-3 SPR (KD).
Broadly, the Kd is the constant that tells how readily two partners part at equilibrium. On to `NC(=O)C[C@H](NC(=O)CCc1nc2c(F)cccc2[nH]1)c1cccc(Cl)c1` [I-441], for which the Kd is > 200 µM.

As to `N#Cc1ccc(N2CCOCC2)cc1N[C@@H]1CCCN(c2cccc(F)c2)C1` [I-71], the Kd was in the range of 10 to 100 µM.

For `CO[C@@H]1C[C@@H](Nc2cc(N3CCOCC3)ccn2)CN(c2cccc(F)c2)C1` [I-512], the Kd was > 200 µM.

Consider `CN(C)CC[C@H](c1ccc(N2CCC[C@@H](Nc3cc(N4CCOCC4)ccn3)C2)cc1)c1ccccn1` [I-783], for which the Kd is > 200 µM.

Take `COCCc1ccc(F)c(-c2[nH]ncc2C(=O)N[C@@H](CC(N)=O)c2cccc(Cl)c2)c1` [I-250]: the Kd was 10 to 100 µM.

With `NC(=O)C[C@H](NC(=O)c1c[nH]nc1-c1cc(F)ccc1F)c1cccc(Cl)c1` [I-513], the Kd is < 10 µM.

`Fc1cccc(N2CCC[C@@H](Nc3cncc(N4CCCCC4)c3)C2)c1` [I-528]: the Kd is > 200 µM.

As for `NC[C@@H]1CCN(c2cccc(F)c2)C[C@H]1Nc1cc(N2CCCCC2)ccn1` [I-1044], the Kd lay in the range of 10 to 100 µM.

In the case of `O[C@H]1CC[C@@H](Nc2cc(N3CCCCC3)ccn2)C[C@@H]1c1ccccc1` [I-984], the Kd is 10 to 100 µM.

As to `Cc1c(F)ccc(F)c1-c1c(C(=O)N[C@@H](CC(N)=O)c2cccc(Cl)c2)cn(C)c1C(=O)c1ccccc1` [I-886], the Kd was < 10 µM.

For the molecule `Nc1ccc(F)cc1N1CCC[C@@H](Nc2cc(N3CCOCC3)ccn2)C1` [I-682], the Kd is < 10 µM.

In the case of `COCCN(c1cc(N2CCCCC2)ccn1)[C@@H]1CCCN(c2cccc(F)c2)C1` [I-596], the Kd is 10 to 100 µM.

For `c1cncc(-c2ccnc(N3CCC[C@@H](Nc4cc(N5CCOCC5)ccn4)C3)n2)c1` [I-416], the Kd lay within 10 to 100 µM.

Regarding `c1ccc(Cn2ccc3c(N4CCC[C@@H](Nc5cc(N6CCOCC6)ccn5)C4)ncnc32)cc1` [I-680], the Kd lay within 100 to 200 µM.

In the case of `CCCCCCC[C@H]1CCCN(c2ccnc(N3CC[C@@H]4[C@H]3CCCN4c3cccc(F)c3)c2)C1` [I-727], the equilibrium dissociation constant (Kd) was > 200 µM.

Take `NCCCCCCCCCCCCCCCCCC(=O)c1[nH]cc(C(=O)N[C@@H](CC(N)=O)c2cccc(Cl)c2)c1-c1ccccc1F` [I-662]: the Kd was > 200 µM.

For `NC(=O)C[C@H](NC(=O)c1cn[nH]c1-c1cccc(F)c1)c1cccc(Cl)c1` [I-115], the Kd is < 10 µM.

`Fc1cccc(N2CCC[C@H]3[C@@H]2CCN3c2cc(N3CCOCC3)ccn2)c1` [I-540]: the Kd is > 200 µM.

Turning to `NC(=O)C[C@H](NC(=O)c1cn[nH]c1CC1CCCCC1)c1cccc(Cl)c1` [I-582], the Kd was < 10 µM.

For `Oc1cnc(N[C@@H]2CCCN(c3cccc(F)c3)C2)cc1N1CCOCC1` [I-409], the Kd is > 200 µM.

For the molecule `CCCCCCC[C@@H]1CCCN(c2ccnc(N3CC[C@@H]4[C@H]3CCCN4c3cccc(F)c3)c2)C1` [I-726], the dissociation constant Kd is > 200 µM.

On to `Fc1cccc(N2CCC[C@@H](Nc3nccc(N4CCNCC4)n3)C2)c1` [I-314], for which the Kd was > 200 µM.

Regarding `Fc1cccc(N2CCC[C@@H](Nc3cc([C@H]4CCCNC4)ccn3)C2)c1` [I-110], the Kd was in the range of 10 to 100 µM.

Take `CC1=C(c2[nH]ncc2C(=O)N[C@@H](CC(N)=O)c2cccc(Cl)c2)CCCC1` [I-610]: the Kd was < 10 µM.

`CS(=O)(=O)CCN(c1cc(N2CCOCC2)ccn1)[C@@H]1CCCN(c2cccc(F)c2)C1` [I-292]: the Kd is > 200 µM.

Regarding `C[C@H](C(N)=O)[C@H](NC(=O)c1c[nH]nc1-c1ccccc1F)c1cccc(Cl)c1` [I-147], the Kd lay in the range of 10 to 100 µM.

`Fc1cccc(N2CCC[C@@H](n3cnc4nccc(N5CCOCC5)c43)C2)c1` [I-494]: the Kd is > 200 µM.

On to `NCCCc1cccc(N2CCC[C@@H](Nc3cc(N4CCOCC4)ccn3)C2)c1` [I-867], for which the dissociation constant (Kd) fell in the range of 10 to 100 µM.

Turning to `OCCCCCCCCC1CCN(c2ccnc(N3CC[C@@H]4[C@H]3CCCN4c3cccc(F)c3)c2)CC1` [I-977], the Kd lay within 10 to 100 µM.

As for `Cc1c(F)ccc(F)c1-c1c(C(=O)N[C@@H](CC(N)=O)c2cccc(Cl)c2)c[nH]c1C(=O)c1cccc(O)c1` [I-792], the Kd is < 10 µM.

In the case of `CCOC(=O)Cc1ccncc1N1CCC[C@@H](Nc2cc(N3CCOCC3)ccn2)C1` [I-766], the Kd fell in the range of 10 to 100 µM.

As for `Fc1cccc(N2CC[C@@H]3CCCc4ncc(N5CCOCC5)cc4N[C@H]3C2)c1` [I-245], the Kd was > 200 µM.

In the case of `NC(=O)[C@H]1CC[C@@H](Nc2cc(N3CCCCC3)ccn2)CN1c1cccc(F)c1` [I-1025], the Kd fell in the range of 10 to 100 µM.

Consider `CN1CC=CC[C@@H]1CC(=O)N[C@@H](CC(N)=O)c1cccc(Cl)c1` [I-442], for which the Kd is > 200 µM.

Take `c1cc(N2CCOCC2)cc(N[C@@H]2CCCN(c3ccnc(OC4CC4)c3)C2)n1` [I-687]: the Kd was 10 to 100 µM.

Regarding `Cc1[nH]cc(C(=O)N[C@@H](CC(N)=O)c2cccc(Cl)c2)c1-c1c(F)cccc1F` [I-585], the Kd was < 10 µM.

With `NC(=O)CC1(NC(=O)c2cn[nH]c2-c2ccccc2F)CCc2ccc(Cl)cc21` (stereo not shown) [I-607], the dissociation constant Kd fell in the range of 10 to 100 µM.

With `C=CC(=O)NCCC1CCCN(c2ccnc(N[C@@H]3CCCN(c4cccc(F)c4)C3)c2)C1` (stereo partly shown) [I-664], the Kd is 10 to 100 µM.

On to `NC(=O)C[C@H](NC(=O)c1[nH]nc(CN2CCOCC2)c1-c1ccccc1F)c1cccc(Cl)c1` [I-178], for which the Kd is > 200 µM.

For the molecule `COCCOCCC1CN(c2cc(N3CCOCC3)ccn2)[C@H]2CCCN(c3cccc(F)c3)[C@@H]12` (stereo partly shown) [I-827], the Kd was < 10 µM.

For `Cc1sc2c(c1C)C(c1ccc(Cl)cc1)=N[C@@H](CC(=O)NCCOCCOCCOCCOCCOCC(=O)c1c(-c3c(F)ccc(F)c3C)c(C(=O)N[C@@H](CC(N)=O)c3cccc(Cl)c3)cn1C)c1nnc(C)n1-2` [I-912], the Kd was < 10 µM.

For `COc1ncc2cc[nH]c2c1N1CCC[C@@H](Nc2cc(N3CCOCC3)ccn2)C1` [I-859], the Kd is 10 to 100 µM.

For `c1cn(Cc2ccc(N3CCC[C@@H](Nc4cc(N5CCOCC5)ccn4)C3)cc2)cn1` [I-692], the equilibrium dissociation constant (Kd) is 100 to 200 µM.

On to `Fc1cccc(N2CCC[C@@H](Nc3cc([C@H]4CCCCO4)ccn3)C2)c1` [I-95], for which the dissociation constant Kd is > 200 µM.

Turning to `CN(C)c1ccnc(N[C@@H]2CCCN(c3cccc(F)c3)C2)c1` [I-498], the Kd fell in the range of 10 to 100 µM.

On to `Cc1sc2c(c1C)C(c1ccc(Cl)cc1)=N[C@@H](CC(=O)NCCCCCCCCCCCCCCCCCC1CCN(c3ccnc(N4CC[C@@H]5[C@H]4CCCN5c4cccc(F)c4)c3)CC1)c1nnc(C)n1-2` [I-901], for which the Kd was > 200 µM.

Consider `c1cc(N2CCOCC2)cc(N[C@@H]2CCCN(c3cnn[nH]3)C2)n1` [I-534], for which the Kd was > 200 µM.

With `COCCN(c1nccc(N2CCOCC2)n1)[C@@H]1CCCN(c2cccc(F)c2)C1` [I-40], the Kd was in the range of 100 to 200 µM.

For the molecule `Fc1cccc(N2CCCC3(C2)CN(c2cc(N4CCOCC4)ccn2)C3)c1` [I-221], the Kd was > 200 µM.

Take `Cc1c(F)ccc(F)c1-c1c(C(=O)N[C@@H](CC(N)=O)c2cccc(Cl)c2)csc1C#N` [I-972]: the equilibrium dissociation constant (Kd) is < 10 µM.

Turning to `Cc1sc2c(c1C)C(c1ccc(Cl)cc1)=N[C@@H](CC(=O)NCCCCCCCCCCCCCCCCCCCCC(=O)c1[nH]cc(C(=O)N[C@@H](CC(N)=O)c3cccc(Cl)c3)c1-c1ccccc1F)c1nnc(C)n1-2` [I-894], the Kd was > 200 µM.

As to `CC(=O)Nc1ccc(N2CCC[C@H]3[C@@H]2CCN3c2cc(N3CCCCC3)ccn2)cc1F` [I-747], the Kd was > 200 µM.

Consider `Fc1cccc(N2CCC[C@@H]3[C@H]2CCN3c2cc(N3CC4CCC(C4)C3)ccn2)c1` [I-604], for which the Kd was < 10 µM.

In the case of `c1cc(N2CCC[C@@H](Nc3cc(N4CCOCC4)ncn3)C2)c2cccnc2c1` [I-393], the Kd was > 200 µM.

On to `CO/N=C(/c1ccccc1)c1[nH]cc(C(=O)N[C@@H](CC(N)=O)c2cccc(Cl)c2)c1-c1c(F)ccc(F)c1C` [I-758], for which the Kd was < 10 µM.

Take `NC(=O)[C@@H]1C[C@@H](Nc2cc(N3CCCCC3)ccn2)CN(c2cccc(F)c2)C1` [I-1033]: the dissociation constant Kd is < 10 µM.

For the molecule `NC(=O)[C@H]1C[C@@H](Nc2cc(N3CCCCC3)ccn2)CN(c2cccc(F)c2)C1` [I-1032], the Kd fell in the range of 10 to 100 µM.

`CO[C@@H]1C[C@@H](Nc2cc(N3CCOCC3)ncn2)CN(c2cccc(F)c2)C1` [I-164]: the Kd was > 200 µM.

In the case of `Oc1ccc2nc(N3CCC[C@@H](Nc4cc(N5CCOCC5)ccn4)C3)ccc2c1` [I-780], the Kd is 10 to 100 µM.

Consider `c1ccc(Cc2ccc(N3CCC[C@@H](Nc4cc(N5CCOCC5)ccn4)C3)nc2)cc1` [I-435], for which the Kd is > 200 µM.

On to `C=CC(=O)NCCCC1CCN(c2ccnc(N3CC[C@@H]4[C@H]3CCCN4c3cccc(F)c3)c2)CC1` [I-705], for which the equilibrium dissociation constant (Kd) lay in the range of 100 to 200 µM.

Turning to `Fc1cccc(N2CCC[C@@H](N(c3ccncc3)c3cc(N4CCOCC4)ccn3)C2)c1` [I-307], the Kd was > 200 µM.

Take `O=C1C(Nc2cc(N3CCOCC3)ccn2)CCCN1c1cccc(F)c1` (stereo not shown) [I-502]: the Kd was > 200 µM.

`Cc1ccc(CCCOCCOCCOCCOCCOCCNC(=O)C[C@@H]2N=C(c3ccc(Cl)cc3)c3c(sc(C)c3C)-n3c(C)nnc32)c(F)c1-c1c(C(=O)N[C@@H](CC(N)=O)c2cccc(Cl)c2)c[nH]c1C#N` [I-1052]: the equilibrium dissociation constant (Kd) was in the range of 10 to 100 µM.

For `C=CC(=O)NC1CCC2(CC1)CCN(c1ccnc(N[C@@H]3CCCN(c4cccc(F)c4)C3)c1)CC2` [I-657], the Kd is < 10 µM.

`Nc1cc(N[C@@H]2CCCN(c3cccc(F)c3)C2)cc(C2CCCCC2)c1` [I-970]: the Kd lay in the range of 10 to 100 µM.

As to `O[C@@H]1C[C@@H](Nc2cc(N3CCOCC3)ncn2)CN(c2cccc(F)c2)C1` [I-163], the Kd was > 200 µM.

For the molecule `COCCN1CCC(c2ccnc(N[C@@H]3CCCN(c4cccc(F)c4)C3)c2)CC1` [I-99], the Kd was in the range of 10 to 100 µM.

With `C=CC(=O)NC1CCC(c2n[nH]cc2C(=O)N[C@@H](CC(N)=O)c2cccc(Cl)c2)CC1` (stereo partly shown) [I-470], the Kd is > 200 µM.

Consider `O=C(N[C@H](c1cccc(Cl)c1)c1ccon1)c1c[nH]nc1-c1ccccc1F` [I-232], for which the Kd is > 200 µM.

With `c1ccc2nc(N3CCC[C@@H](Nc4nccc(N5CCOCC5)n4)C3)ccc2c1` [I-37], the Kd is > 200 µM.

With `Fc1cccc(N2CCCC(N(c3cc(N4CCOCC4)ccn3)C(F)(F)F)C2)c1` (stereo not shown) [I-305], the Kd was > 200 µM.

In the case of `c1ccc2c(N3CCC[C@@H](Nc4cc(N5CCOCC5)ccn4)C3)nncc2c1` [I-65], the Kd lay within 100 to 200 µM.
